From article PMC3227451, “Structure-based development of novel sirtuin inhibitors” (Aging (Albany NY), 2011)

Experiments:
[1] = system: HEK cells; test: Cytotoxicity testing on HEK cells
[2] = molecular target: T1, Sirt2 (Homo sapiens, UniProt Q8IXJ6); test: Fluor-de-Lys peptide deacetylation assay, Sirt2; format: biochemical
T1 sequence (Q8IXJ6 34-356): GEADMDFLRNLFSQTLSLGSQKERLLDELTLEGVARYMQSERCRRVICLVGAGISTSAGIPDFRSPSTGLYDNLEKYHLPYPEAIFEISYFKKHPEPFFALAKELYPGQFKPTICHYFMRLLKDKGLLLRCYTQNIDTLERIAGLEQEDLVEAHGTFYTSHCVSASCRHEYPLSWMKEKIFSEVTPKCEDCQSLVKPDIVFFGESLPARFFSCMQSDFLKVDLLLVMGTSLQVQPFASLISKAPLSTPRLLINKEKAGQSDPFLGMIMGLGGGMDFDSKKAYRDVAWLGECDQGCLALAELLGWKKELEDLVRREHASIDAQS
Method in brief: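 Full-length human Sirt2 (E. coli-expressed, purified, His-tag removed) incubated 30 min at 37 °C with 0.1 mM FdL-2 peptide (QPK(acetyl-K)), 0.5 mM NAD+ and compound at 100 μM final in kit buffer. Values corrected with compound-only (no Sirtuin) controls; screen in duplicate, dose-response in triplicate.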

[3] = molecular target: T2, Sirt1 (Homo sapiens, UniProt Q96EB6); test: in vitro activity of Sirt1; format: biochemical; settings: concentration of 100 μM
T2 sequence (Q96EB6 1-747): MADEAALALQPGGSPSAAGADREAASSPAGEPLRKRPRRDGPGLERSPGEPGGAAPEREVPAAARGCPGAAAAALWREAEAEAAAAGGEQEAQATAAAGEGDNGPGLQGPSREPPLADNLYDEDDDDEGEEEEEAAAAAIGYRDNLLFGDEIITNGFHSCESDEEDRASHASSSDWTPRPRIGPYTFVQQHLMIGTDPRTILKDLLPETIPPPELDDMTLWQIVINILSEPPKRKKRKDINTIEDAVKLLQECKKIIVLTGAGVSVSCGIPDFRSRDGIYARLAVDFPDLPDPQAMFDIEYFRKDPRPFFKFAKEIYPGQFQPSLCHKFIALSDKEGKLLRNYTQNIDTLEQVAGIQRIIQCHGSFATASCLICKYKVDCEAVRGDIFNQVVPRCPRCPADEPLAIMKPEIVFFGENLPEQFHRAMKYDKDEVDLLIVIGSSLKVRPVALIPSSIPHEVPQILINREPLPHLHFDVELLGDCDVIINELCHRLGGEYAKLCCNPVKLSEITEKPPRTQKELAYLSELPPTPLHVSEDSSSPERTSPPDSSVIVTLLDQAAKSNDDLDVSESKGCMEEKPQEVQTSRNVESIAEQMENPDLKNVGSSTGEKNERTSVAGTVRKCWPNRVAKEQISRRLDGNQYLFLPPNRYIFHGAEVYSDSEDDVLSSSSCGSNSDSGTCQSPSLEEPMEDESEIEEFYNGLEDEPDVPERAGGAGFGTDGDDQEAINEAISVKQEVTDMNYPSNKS

CC12Cc3cnc(-c4ccccc4)nc3CC1CCC1C2CCC2(C)C1CCC2(C)O (centres unmarked) [CSC13, 1,11a,13a-trimethyl-8-phenyl-2,3,3a,3b,4,5,5a,6,11,11a,11b,12,13,13a-tetradecahydro-1H-cyclopenta[5,6]naphtho[1,2-g]quinazolin-1-ol]
cytotoxicity [1]: smaller effect | Effect on the activity of Sirt2 [2]: inhibition (key: inhibition: significant inhibitory effects (>25% loss of activity); ---: no such effect) | IC50 [2]: 9.7 ± 1.5 µM | inhibition at 100 µM ([2]; read-out: Sirt2 inhibition in the screen): ~80% | effect on the in vitro activity of Sirt1 [3]: only a weak inhibitory effect
